Tested on: MCH receptors
Test: MCH receptor activity class (method not given)
Settings: class by percent of control at 10^-7 M or IC50

How did the class turn out when CN(C)c1cc(N[C@H]2CC[C@@H](CNC(=O)Cc3c(Cl)ccc(Cl)c3Cl)CC2)nc2ccccc12 [compound 789, N-[(cis-4-{[4-(dimethylamino)quinolin-2-yl]amino}cyclohexyl)methyl]-2-(2,3,6-trichlorophenyl)acetamide] was run?
Its class is 1 (Class 1: The value of percent of control at 10^−7 M was less than 40% or the value of IC50 was less than 50 nM.).

CN(C)c1cc(N[C@H]2CC[C@@H](CNC(=O)Cc3ccc(F)cc3Cl)CC2)nc2ccccc12 [compound 790] was tested. Which class did it give?
Its class is 3 (Class 3 The value of percent of control at 10^−7 M was more than 60% or the value of IC50 was more than 200 nM.).

CN(C)c1cc(N[C@H]2CC[C@@H](CNC(=O)c3ccc(-c4ccc(Cl)cc4[N+](=O)[O-])o3)CC2)nc2ccccc12 [compound 791] was tested. Which class did it give?
The class was 3 (Class 3 The value of percent of control at 10^−7 M was more than 60% or the value of IC50 was more than 200 nM.).

CN(C)c1cc(N[C@H]2CC[C@@H](CNC(=O)c3ccc(Cl)s3)CC2)nc2ccccc12 [compound 792] was tested. Which class did it give?
The class was 3 (Class 3 The value of percent of control at 10^−7 M was more than 60% or the value of IC50 was more than 200 nM.).

With CN(C)c1cc(N[C@H]2CC[C@@H](CNC(=O)CCc3ccccc3O)CC2)nc2ccccc12 [compound 794] as the compound, how does the class read?
The class was 3 (Class 3 The value of percent of control at 10^−7 M was more than 60% or the value of IC50 was more than 200 nM.).

With CN(C)c1cc(N[C@H]2CC[C@@H](CNC(=O)c3ccc(I)o3)CC2)nc2ccccc12 [compound 795, N-[(cis-4-{[4-(dimethylamino)quinolin-2-yl]amino}cyclohexyl)methyl]-5-iodo-2-furamide] as the compound, how does the class read?
The class was 3 (Class 3 The value of percent of control at 10^−7 M was more than 60% or the value of IC50 was more than 200 nM.).

Which class does the source give for CN(C)c1cc(N[C@H]2CC[C@@H](CNC(=O)Cc3ccccc3I)CC2)nc2ccccc12 [compound 796] here?
Its class is 3 (Class 3 The value of percent of control at 10^−7 M was more than 60% or the value of IC50 was more than 200 nM.).

With CN(C)c1cc(N[C@H]2CC[C@@H](CNC(=O)/C=C/c3cccc([N+](=O)[O-])c3)CC2)nc2ccccc12 [compound 797] as the compound, how does the class read?
Its class is 2 (Class 2: The value of percent of control at 10^−7 M was from 40% to 60% or the value of IC′50 was from 50 nM to 200 nM.).

With CN(C)c1cc(N[C@H]2CC[C@@H](CNC(=O)c3ccccc3Cc3ccccc3)CC2)nc2ccccc12 [compound 799] as the compound, how does the class read?
Its class is 3 (Class 3 The value of percent of control at 10^−7 M was more than 60% or the value of IC50 was more than 200 nM.).

How did the class turn out when CN(C)c1cc(N[C@H]2CC[C@@H](CNC(=O)C(c3ccc(Cl)cc3)c3ccc(Cl)cc3)CC2)nc2ccccc12 [compound 800, 2,2-bis(4-chlorophenyl)-N-[(cis-4-{[4-(dimethylamino)quinolin-2-yl]amino}cyclohexyl)methyl]acetamide] was run?
Its class is 3 (Class 3 The value of percent of control at 10^−7 M was more than 60% or the value of IC50 was more than 200 nM.).

Cc1ccc(-c2ccc(C(=O)NC[C@H]3CC[C@@H](Nc4cc(N(C)C)c5ccccc5n4)CC3)o2)c([N+](=O)[O-])c1 [compound 801] was tested. Which class did it give?
The class was 3 (Class 3 The value of percent of control at 10^−7 M was more than 60% or the value of IC50 was more than 200 nM.).

Which class does the source give for CN(C)c1cc(N[C@H]2CC[C@@H](CNC(=O)c3ccc([N+](=O)[O-])s3)CC2)nc2ccccc12 [compound 802, N-[(cis-4-{[4-(dimethylamino)quinolin-2-yl]amino}cyclohexyl)methyl]-5-nitrothiophene-2-carboxamide] here?
Its class is 3 (Class 3 The value of percent of control at 10^−7 M was more than 60% or the value of IC50 was more than 200 nM.).

How did the class turn out when Cc1cc(C(=O)NC[C@H]2CC[C@@H](Nc3cc(N(C)C)c4ccccc4n3)CC2)ccc1[N+](=O)[O-] [compound 803, N-[(cis-4-{[4-(dimethylamino)quinolin-2-yl]amino}cyclohexyl)methyl]-3-methyl-4-nitrobenzamide] was run?
The class was 3 (Class 3 The value of percent of control at 10^−7 M was more than 60% or the value of IC50 was more than 200 nM.).

COc1cc(C(=O)NC[C@H]2CC[C@@H](Nc3cc(N(C)C)c4ccccc4n3)CC2)ccc1[N+](=O)[O-] [compound 804, N-[(cis-4-{[4-(dimethylamino)quinolin-2-yl]amino}cyclohexyl)methyl]-3-methoxy-4-nitrobenzamide] was tested. Which class did it give?
Its class is 3 (Class 3 The value of percent of control at 10^−7 M was more than 60% or the value of IC50 was more than 200 nM.).

How did the class turn out when CN(C)c1cc(N[C@H]2CC[C@@H](CNC(=O)c3cn(Cc4ccccc4)c4ccccc34)CC2)nc2ccccc12 [compound 805] was run?
The class was 3 (Class 3 The value of percent of control at 10^−7 M was more than 60% or the value of IC50 was more than 200 nM.).

With CN(C)c1cc(N[C@H]2CC[C@@H](CNC(=O)CC3=CCCCC3)CC2)nc2ccccc12 [compound 806] as the compound, how does the class read?
The class was 3 (Class 3 The value of percent of control at 10^−7 M was more than 60% or the value of IC50 was more than 200 nM.).

How did the class turn out when CN(C)c1cc(N[C@H]2CC[C@@H](CNC(=O)Cc3ccccc3OC(F)(F)F)CC2)nc2ccccc12 [compound 808] was run?
The class was 3 (Class 3 The value of percent of control at 10^−7 M was more than 60% or the value of IC50 was more than 200 nM.).

Which class does the source give for Cc1cc(C(=O)NC[C@H]2CC[C@@H](Nc3cc(N(C)C)c4ccccc4n3)CC2)cc(C)c1OCc1ccccc1 [compound 809] here?
The class was 3 (Class 3 The value of percent of control at 10^−7 M was more than 60% or the value of IC50 was more than 200 nM.).

CN(C)c1cc(N[C@H]2CC[C@@H](CNC(=O)C3c4ccccc4Oc4ccccc43)CC2)nc2ccccc12 [compound 810] was tested. Which class did it give?
The class was 3 (Class 3 The value of percent of control at 10^−7 M was more than 60% or the value of IC50 was more than 200 nM.).

With CN(C)c1cc(N[C@H]2CC[C@@H](CNC(=O)Cc3csc4ccccc34)CC2)nc2ccccc12 [compound 811] as the compound, how does the class read?
The class was 3 (Class 3 The value of percent of control at 10^−7 M was more than 60% or the value of IC50 was more than 200 nM.).

Which class does the source give for CN(C)c1ccnc(N[C@H]2CC[C@@H](NC(=O)c3ccc(Br)s3)CC2)n1 [compound 812] here?
Its class is 3 (Class 3 The value of percent of control at 10^−7 M was more than 60% or the value of IC50 was more than 200 nM.).

With CN(C)c1ccnc(N[C@H]2CC[C@@H](NC(=O)Cc3c(Cl)ccc(Cl)c3Cl)CC2)n1 [compound 813] as the compound, how does the class read?
The class was 3 (Class 3 The value of percent of control at 10^−7 M was more than 60% or the value of IC50 was more than 200 nM.).

How did the class turn out when CN(C)c1ccnc(N[C@H]2CC[C@@H](NC(=O)Cc3ccc(F)cc3Cl)CC2)n1 [compound 814] was run?
Its class is 3 (Class 3 The value of percent of control at 10^−7 M was more than 60% or the value of IC50 was more than 200 nM.).

CN(C)c1ccnc(N[C@H]2CC[C@@H](NC(=O)c3ccc(-c4ccc(Cl)cc4[N+](=O)[O-])o3)CC2)n1 [compound 815, 5-(4-chloro-2-nitrophenyl)-N-(cis-4-{[4-(dimethylamino)pyrimidin-2-yl]amino}cyclohexyl)-2-furamide] was tested. Which class did it give?
The class was 1 (Class 1: The value of percent of control at 10^−7 M was less than 40% or the value of IC50 was less than 50 nM.).

CN(C)c1ccnc(N[C@H]2CC[C@@H](NC(=O)c3ccc(Cl)s3)CC2)n1 [compound 816] was tested. Which class did it give?
The class was 3 (Class 3 The value of percent of control at 10^−7 M was more than 60% or the value of IC50 was more than 200 nM.).

Which class does the source give for CN(C)c1ccnc(N[C@H]2CC[C@@H](NC(=O)CCc3ccccc3O)CC2)n1 [compound 818] here?
Its class is 3 (Class 3 The value of percent of control at 10^−7 M was more than 60% or the value of IC50 was more than 200 nM.).

How did the class turn out when CN(C)c1ccnc(N[C@H]2CC[C@@H](NC(=O)c3ccc(I)o3)CC2)n1 [compound 819, N-(cis-4-{[4-(dimethylamino)pyrimidin-2-yl]amino}cyclohexyl)-5-iodo-2-furamide] was run?
The class was 2 (Class 2: The value of percent of control at 10^−7 M was from 40% to 60% or the value of IC′50 was from 50 nM to 200 nM.).

With CN(C)c1ccnc(N[C@H]2CC[C@@H](NC(=O)Cc3ccccc3I)CC2)n1 [compound 820] as the compound, how does the class read?
The class was 3 (Class 3 The value of percent of control at 10^−7 M was more than 60% or the value of IC50 was more than 200 nM.).

Which class does the source give for COc1ccc2[nH]c(C)c(CC(=O)N[C@H]3CC[C@@H](Nc4nccc(N(C)C)n4)CC3)c2c1 [compound 821] here?
The class was 3 (Class 3 The value of percent of control at 10^−7 M was more than 60% or the value of IC50 was more than 200 nM.).

For CN(C)c1ccnc(N[C@H]2CC[C@@H](NC(=O)/C=C/c3cccc([N+](=O)[O-])c3)CC2)n1 [compound 822], which class is on record?
The class was 3 (Class 3 The value of percent of control at 10^−7 M was more than 60% or the value of IC50 was more than 200 nM.).

How did the class turn out when CN(C)c1ccnc(N[C@H]2CC[C@@H](NC(=O)c3ccccc3Cc3ccccc3)CC2)n1 [compound 824] was run?
Its class is 3 (Class 3 The value of percent of control at 10^−7 M was more than 60% or the value of IC50 was more than 200 nM.).

CN(C)c1ccnc(N[C@H]2CC[C@@H](NC(=O)C(c3ccc(Cl)cc3)c3ccc(Cl)cc3)CC2)n1 [compound 825] was tested. Which class did it give?
The class was 3 (Class 3 The value of percent of control at 10^−7 M was more than 60% or the value of IC50 was more than 200 nM.).

With Cc1ccc(-c2ccc(C(=O)N[C@H]3CC[C@@H](Nc4nccc(N(C)C)n4)CC3)o2)c([N+](=O)[O-])c1 [compound 826, N-(cis-4-{[4-(dimethylamino)pyrimidin-2-yl]amino}cyclohexyl)-5-(4-methyl-2-nitrophenyl)-2-furamide] as the compound, how does the class read?
Its class is 2 (Class 2: The value of percent of control at 10^−7 M was from 40% to 60% or the value of IC′50 was from 50 nM to 200 nM.).

How did the class turn out when CN(C)c1ccnc(N[C@H]2CC[C@@H](NC(=O)c3ccc([N+](=O)[O-])s3)CC2)n1 [compound 827, N-(cis-4-{[4-(dimethylamino)pyrimidin-2-yl]amino}cyclohexyl)-5-nitrothiophene-2-carboxamide] was run?
Its class is 2 (Class 2: The value of percent of control at 10^−7 M was from 40% to 60% or the value of IC′50 was from 50 nM to 200 nM.).

Cc1cc(C(=O)N[C@H]2CC[C@@H](Nc3nccc(N(C)C)n3)CC2)ccc1[N+](=O)[O-] [compound 828, N-(cis-4-{[4-(dimethylamino)pyrimidin-2-yl]amino}cyclohexyl)-3-methyl-4-nitrobenzamide] was tested. Which class did it give?
Its class is 2 (Class 2: The value of percent of control at 10^−7 M was from 40% to 60% or the value of IC′50 was from 50 nM to 200 nM.).
